Laboratory results: patent US10358454B2, “Marinopyrrole derivatives and methods of making and using same” (H. LEE MOFFITT CANCER CENTER AND RESEARCH INSTITUTE, INC., priority 2014, dated 2019)
Entries after “also recorded” stand apart in the source; their conditions may differ. Read-outs that look alike come from different tables or passages of the source.

How the values were obtained:
Mcl-1/Bim = Mcl-1/Bim (Homo sapiens, UniProt Q07820); assay: Mcl-1/Bim ELISA (GST-Mcl-1 binding to biotinylated Bim BH3 peptide); settings: for fold loss of potency against Mcl-1/Bim: 1-15 and 1-13 vs 1-10, 1-14 vs 1-11, 1-16 vs 1-15, 1-12 vs 1-9, 1-22, 1-21, 1-20 vs 1-23, 1-37 and N-Me methoxy analogue vs (±)-1; for selectivity for Mcl-1 over Bcl-xL (Mcl-1/Bim over Bcl-xL/Bim): ratio of ELISA IC50 values
Chain of Mcl-1/Bim (Q07820 whole entry): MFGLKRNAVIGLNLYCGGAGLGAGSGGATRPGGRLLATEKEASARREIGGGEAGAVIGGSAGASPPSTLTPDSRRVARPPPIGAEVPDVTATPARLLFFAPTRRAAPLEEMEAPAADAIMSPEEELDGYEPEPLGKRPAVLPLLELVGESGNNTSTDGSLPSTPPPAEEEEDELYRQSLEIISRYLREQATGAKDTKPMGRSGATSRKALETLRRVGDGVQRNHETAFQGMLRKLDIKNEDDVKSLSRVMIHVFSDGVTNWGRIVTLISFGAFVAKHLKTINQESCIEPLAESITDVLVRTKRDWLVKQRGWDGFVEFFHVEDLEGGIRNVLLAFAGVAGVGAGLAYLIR
Description: (§1) ELISAs were performed using a modified version of a previously described procedure (Doi K et al. J. Biol. Chem. 2012, 287, 10224-10235). Briefly, 40 nM of biotinylated Bim BH3 peptide (Biomatik) in SuperBlock blocking buffer (Pierce) was incubated in high-binding capacity streptavidin-coated plates (Pierce) for 2 h. Compounds were diluted in 120 μl of PBS containing 10 nM of GST-Mcl-1 or GST-Bcl-xL in 1.5 mL tubes for 15 min. Wells were washed with wash buffer (PBS containing 0.05% Tween-20) and then 100 μL of the compound/GST-protein mixture was transferred to the wells. The plates were incubated for 2 h, and then the wells were washed with wash buffer. HRP-conjugated anti-GST antibody (Bethyl Laboratories) was diluted 1:2000 in SuperBlock and 100 μL was transferred to each well. The plate was incubated for 1 h, and then the wells were washed with wash buffer followed by PBS. 100 μL of SureBlue TMB Microwell Peroxidase Substrate (VWR) was added to each well and plates were developed for 5-10 min. 100 μL of 1 N HCl was added to each well to stop the reaction and absorbance was read at 450 nm using a μQuant plate reader (Bio-Tek).
(§2) ELISAs were performed using a similar procedure as previously described (Doi K, et al. J. Biol. Chem. 2012, 287, 10224-10235). Briefly, 40 nM of biotinylated Bim BH3 peptide (Biomatik) in SuperBlock blocking buffer (Pierce) was incubated in high-binding capacity streptavidin-coated plates (Pierce) for 2 h. Compounds were diluted in 120 μl of PBS containing 10 nM of GST-Mcl-1 or GST-Bcl-xL in 1.5 mL tubes for 15 min. Wells were washed with wash buffer (PBS containing 0.05% Tween-20) and then 100 μL of the compound/GST-protein mixture was transferred to the wells. The plates were incubated for 2 h, and then wells were washed with wash buffer. HRP-conjugated anti-GST antibody (Bethyl Laboratories) was diluted 1:2000 in SuperBlock and 100 μL was transferred to each well. The plate was incubated for 1 h, and then wells were washed with wash buffer followed by PBS. 100 μL of SureBlue TMB Microwell Peroxidase Substrate (VWR) was added to each well and plates were developed for 5-10 min. 100 μL of 1 N HCl was added to each well to stop the reaction and absorbance was read at 450 nm using μQuant plate reader (Bio-Tek).

Bcl-xL/Bim = Bcl-xL/Bim (Homo sapiens, UniProt Q07817); assay: Bcl-xL/Bim ELISA (GST-Bcl-xL binding to biotinylated Bim BH3 peptide)
Chain of Bcl-xL/Bim (Q07817 whole entry): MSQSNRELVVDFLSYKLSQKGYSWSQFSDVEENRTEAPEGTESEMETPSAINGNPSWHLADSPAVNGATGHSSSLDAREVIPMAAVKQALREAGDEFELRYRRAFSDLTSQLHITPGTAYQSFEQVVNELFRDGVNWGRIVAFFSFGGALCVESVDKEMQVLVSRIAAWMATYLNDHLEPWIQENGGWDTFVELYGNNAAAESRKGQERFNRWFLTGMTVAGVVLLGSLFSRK
Description: as §1, §2

[1] = Table 2-B, n ≥ 3, read-out: Mcl-1/Bim IC50 (average ± SEM)
[2] = Table 3-A structure I, Mcl-1 at 10 nM, n ≥ 3, read-out: Mcl-1-Bim IC50 (average ± SEM)
[3] = Table 3-A structure I, Bcl-xL at 10 nM, n ≥ 3, read-out: Bcl-xL-Bim IC50 (average ± SEM)
[4] = Table 2-A, n ≥ 3, read-out: Mcl-1/Bim IC50 (average ± SEM)
[5] = Table 3-B structure II, n ≥ 3, read-out: Mcl-1-Bim IC50 (average ± SEM)
[6] = read-out: IC50 to inhibit the binding of Mcl-1 to Bim
[7] = Table 2-A, n ≥ 3, read-out: Bcl-xL/Bim IC50 (average ± SEM)
[8] = Table 3-B structure II, n ≥ 3, read-out: Bcl-xL-Bim IC50 (average ± SEM)

SMILES | fold loss of potency against Mcl-1/Bim (Mcl-1/Bim) | IC50 (Mcl-1/Bim; [1]) | IC50 (Mcl-1/Bim; [2]) | selectivity for Mcl-1 over Bcl-xL (Mcl-1/Bim over Bcl-xL/Bim) (Mcl-1/Bim) | IC50 (Mcl-1/Bim; [4]) | IC50 (Mcl-1/Bim; [5]) | IC50 (Mcl-1/Bim; [6]) | IC50 (Bcl-xL/Bim; [7]) | IC50 (Bcl-xL/Bim; [8]) | activity against Bcl-xL/Bim in words (Bcl-xL/Bim) | also measured
O=C(c1ccc(S(=O)(=O)Cc2ccccc2)cc1O)c1[nH]c(Cl)c(Cl)c1-n1c(C(=O)c2ccc(S(=O)(=O)Cc3ccccc3)cc2O)cc(Cl)c1Cl [Compound 1-13, (4,4′,5,5′-Tetrachloro-1′H-1,3′-bipyrrole-2,2′-diyl)bis(((2-hydroxy-4-benzylsulfonyl)phenyl)methanone)] | 16 fold | 11.2 ± 4 µM | 7.3 ± 1.4 µM | – | – | – | – | – | – | – | IC50 (Bcl-xL/Bim; [3]): 69.3 ± 5.8 µM
COc1ccc(CS(=O)(=O)c2ccc(C(=O)c3[nH]c(Cl)c(Cl)c3-n3c(C(=O)c4ccc(S(=O)(=O)Cc5ccc(OC)cc5)cc4O)cc(Cl)c3Cl)c(O)c2)cc1 [Compound 1-14] | 25 fold | 17.4 ± 3.1 µM | – | – | – | – | – | – | – | – | –
O=C(O)CSc1ccc(C(=O)c2[nH]c(Cl)c(Cl)c2-n2c(C(=O)c3ccc(SCC(=O)O)cc3O)cc(Cl)c2Cl)c(O)c1 [Compound 1-15] | 8.7 fold | 6.1 ± 1.3 µM | 6.1 ± 1.3 µM | over 16 fold | – | – | – | – | – | – | selectivity profile Mcl-1 vs Bcl-xL in words (Mcl-1/Bim; from Mcl-1/Bim and Bcl-xL/Bim ELISA): much more selective for Mcl-1 over Bcl-xL; IC50 (Mcl-1/Bim; read-out: IC50 to disrupt Mcl-1/Bim binding): 6.1 µM; IC50 (Bcl-xL/Bim; Table 2-B, n ≥ 3 unless specified, read-out: Bcl-xL/Bim IC50 (average ± SEM)): > 100 µM; IC50 (Bcl-xL/Bim; [3]): > 100 µM; IC50 (Bcl-xL/Bim; read-out: IC50 to inhibit Bcl-xL/Bim binding): > 100 µM
O=C(O)CS(=O)(=O)c1ccc(C(=O)c2[nH]c(Cl)c(Cl)c2-n2c(C(=O)c3ccc(S(=O)(=O)CC(=O)O)cc3O)cc(Cl)c2Cl)c(O)c1 [Compound 1-16] | 10 fold | – | 63 ± 5.4 µM | – | – | – | – | – | – | – | activity against Mcl-1/Bim in words (Mcl-1/Bim): lost potency
CCOC(=O)Cn1cc(-c2cc(O)c(C(=O)c3[nH]c(Cl)c(Cl)c3-n3c(C(=O)c4cc(Cl)c(-c5cn(CC(=O)OCC)nn5)cc4O)cc(Cl)c3Cl)cc2Cl)nn1 [Compound 1-17, Diethyl 2,2′-(4,4′-((4,4′,5,5′-tetrachloro-1′H-1,3′-bipyrrole-2,2′-dicarbonyl)bis(2-chloro-5-hydroxy-4,1-phenylene))bis(1H-1,2,3-triazole-4,1-diyl))diacetate] | – | – | – | 12.9 fold | 7.8 ± 1.5 µM | 7.8 ± 1.5 µM | 7.8 µM | > 100 µM | > 100 µM | not active | –
CC(C)(C)OC(=O)Cn1cc(-c2cc(O)c(C(=O)c3[nH]c(Cl)c(Cl)c3-n3c(C(=O)c4cc(Cl)c(-c5cn(CC(=O)OC(C)(C)C)nn5)cc4O)cc(Cl)c3Cl)cc2Cl)nn1 [Compound 1-18, Di-tert-butyl 2,2′-(4,4′-((4,4′,5,5′-tetrachloro-1′H-1,3′-bipyrrole-2,2′-dicarbonyl)bis(2-chloro-5-hydroxy-4,1-phenylene))bis(1H-1,2,3-triazole-4,1-diyl))diacetate] | – | – | – | 8.3 fold | – | – | – | – | – | – | –

More lines, main results first:

fold loss of potency against Mcl-1/Bim (Mcl-1/Bim) | IC50 (Mcl-1/Bim; [1]) | IC50 (Mcl-1/Bim; [2]) | selectivity for Mcl-1 over Bcl-xL (Mcl-1/Bim over Bcl-xL/Bim) (Mcl-1/Bim) | IC50 (Mcl-1/Bim; [4]) | IC50 (Mcl-1/Bim; [5]) | IC50 (Mcl-1/Bim; [6]) | IC50 (Bcl-xL/Bim; [7]) | IC50 (Bcl-xL/Bim; [8]) | SMILES | activity against Bcl-xL/Bim in words (Bcl-xL/Bim) | also measured
– | – | – | 5.4 fold | 18.4 ± 0.3 µM | 18.4 ± 0.3 µM | 18.4 µM | > 100 µM | > 100 µM | CCOC(=O)Cn1cc(-c2ccc(C(=O)c3[nH]c(Cl)c(Cl)c3-n3c(C(=O)c4ccc(-c5cn(CC(=O)OCC)nn5)cc4O)cc(Cl)c3Cl)c(O)c2)nn1 [Compound 1-24, Diethyl 2,2′-(4,4′-((4,4′,5,5′-tetrachloro-1′H-1,3′-bipyrrole-2,2′-dicarbonyl)bis(3-hydroxy-4,1-phenylene))bis(1H-1,2,3-triazole-4,1-diyl))diacetate] | not tolerated; also recorded: not active | –
– | – | – | 1.6 fold | – | – | – | – | – | CC(C)(C)OC(=O)Cn1cc(-c2ccc(C(=O)c3[nH]c(Cl)c(Cl)c3-n3c(C(=O)c4ccc(-c5cn(CC(=O)OC(C)(C)C)nn5)cc4O)cc(Cl)c3Cl)c(O)c2)nn1 [Compound 1-25, Di-tert-butyl 2,2′-(4,4′-((4,4′,5,5′-tetrachloro-1′H-1,3′-bipyrrole-2,2′-dicarbonyl)bis(3-hydroxy-4,1-phenylene))bis(1H-1,2,3-triazole-4,1-diyl))diacetate] | – | –
– | – | – | 3.0 fold | 16.5 ± 1.9 µM | 16.5 ± 1.9 µM | 16.5 µM | > 50 µM | > 50 µM | O=C(O)Cn1cc(-c2ccc(C(=O)c3[nH]c(Cl)c(Cl)c3-n3c(C(=O)c4ccc(-c5cn(CC(=O)O)nn5)cc4O)cc(Cl)c3Cl)c(O)c2)nn1 [Compound 1-26, 2,2′-(4,4′-((4,4′,5,5′-Tetrachloro-1′H-1,3′-bipyrrole-2,2′-dicarbonyl)bis(3-hydroxy-4,1-phenylene))bis(1H-1,2,3-triazole-4,1-diyl))diacetic acid] | not tolerated; also recorded: not active | –
